According to patent US20030152599A1, “Composition for external use” (Shiseido Co., Ltd., priority 1999, published 2003):

Assays:
keratinous layer [1] = experiment: Water content of the keratinous layer (electrical conductivity, Skicon-200); type: in vivo, human (middle-aged subjects); conditions: 1% aqueous solution, inside of the forearm, three times per day for four days
Protocol: (§1) The effect of 2-amino-1,3-propanediol and 2-amino-1,3-propanediol hydrochloride on mitigation of decrease in turnover rate of the keratinous layer induced by aging was investigated in four middle-aged subjects. The turnover rate, water content of the keratinous layer, and elasticity of the skin were evaluated. 1% Aqueous solutions of 2-amino-1,3-propanediol and its hydrochloride were employed as the representative compositions of the present invention. A 1% aqueous solution of glycolic acid—which is one type of AHA—was employed as a comparative composition, and water (purified water) was employed as a reference.
(§2) A 1% phosphor solution (1 mL) in ethanol was added to an outer syringe (length: about 2 cm) of a 10-mL disposable injector, to bring the solution into contact with the skin for one minute (four portions on the inside of the forearm). From the next day, each sample including water was applied to the phosphor-contacted portions. Application was performed three times per day and continued for four consecutive days.
Water content of the keratinous layer was measured by use of an apparatus for measuring electrical conductivity (Skicon-200, product of IBS). The conductivity was employed as an index of water content. Thus, the higher the water content, the higher the electrical conductivity.
(§3) The turnover rate, water content of keratinous layer and elasticity of the skin in case of 2-amino-2-methyl-1,3-propanediol and its hydrochloride were also investigated.

skin = experiment: Elasticity of the skin (Cutometer SEM474, Ur/Uf); type: in vivo, human (middle-aged subjects); conditions: 1% aqueous solution, inside of the forearm, three times per day for four days; Ur/Uf at 300 hPa
Protocol: as §1, §2
Elasticity of the skin was measured by use of Cutometer SEM474 (product of Courage+Khazaka). The elasticity was obtained from extension (Uf) and retraction (Ur) of the skin when a negative pressure of 300 hPa was repeatedly applied to the skin by use of a probe having a diameter of 2 mm. The ratio (Ur/Uf) was employed as an index of elasticity of the skin. The higher the ratio, the higher the elasticity of the skin.
as §3

keratinous layer [2] = experiment: Turnover rate of the keratinous layer (decrease in fluorescence from the skin surface); type: in vivo, human (middle-aged subjects); conditions: 1% aqueous solution, inside of the forearm, three times per day for four days, measured on the fifth day
Protocol: as §1, §2
On the fifth day after the test was initiated, intensity of fluorescence from the skin surface was measured by use of a fluorescence-detector designed for this particular use. Decrease in fluorescence was employed as an index of the turnover rate of the keratinous layer. The larger the decrease in fluorescence, the greater the turnover rate.
as §3

desmoglein = experiment: Evaluation for promotion of decomposition of desmoglein (keratinous layer sheet, anti-desmoglein immunoblot); type: biochemical; conditions: applied to both sides of keratinous layer sheet, 37° C., humidity 75%, one week; versus glycolic acid positive control
Protocol: To both sides of a sheet (1.5±0.2 mg) of the keratinous layer was applied 2-amino-1,3-propanediol, 2-amino-1,3-propanediol hydrochloride, or glycolic acid (5 μL for each side). Glycolic acid, which is one of AHA's, was used as a positive control. The sheet was sandwiched by stainless steel mesh sheets and allowed to stand at 37° C. with a humidity of 75% for one week. Subsequently, the sheet was transferred into a microtube, and an extracting liquid (100 μL) was added to the microtube. The mixture was maintained at 37° C. overnight to extract protein from the mixture. The extract was subjected to electrophoresis by use of […], and the gel was transferred to a PVDF membrane. An anti-desmoglein antibody and an alkaline-phosphatase-labeled anti-IgG sequentially reacted with the […], and the resultant gel was colored with alkaline phosphatase. The image of bands formed on the membrane was captured by an image-scanner, and was analyzed, to obtain the amount of desmoglein. The test was performed twice, and an average value of the amount was calculated. The average values of samples were compared.
The effect of 2-amino-2-methyl-1,3-propanediol and its hydrochloride was investigated in accordance with the same method.

Compound: Cl.NC(CO)CO [2-amino-1,3-propanediol hydrochloride]
- water content of the keratinous layer (keratinous layer [1]): improve water content of the keratinous layer
- elasticity of the skin (skin): improve
- mitigation of decrease in turnover rate of the keratinous layer induced by aging (keratinous layer [2]): mitigate decrease in turnover rate induced by aging
- effect of promoting decomposition of desmoglein (desmoglein): stronger effect of promoting decomposition of desmoglein than does glycolic acid

Compound: NC(CO)CO [2-amino-1,3-propanediol]
- water content of the keratinous layer (keratinous layer [1]): improve water content of the keratinous layer
- elasticity of the skin (skin): improve
- mitigation of decrease in turnover rate of the keratinous layer induced by aging (keratinous layer [2]): mitigate decrease in turnover rate induced by aging
- effect of promoting decomposition of desmoglein (desmoglein): stronger effect of promoting decomposition of desmoglein than does glycolic acid

Compound: CC(N)(CO)CO.Cl [2-amino-2-methyl-1,3-propanediol hydrochloride]
- water content of the keratinous layer (keratinous layer [1]): more strongly than does glycolic acid
- elasticity of the skin (skin): more strongly than does glycolic acid
- mitigation of decrease in turnover rate of the keratinous layer induced by aging (keratinous layer [2]): more strongly than does glycolic acid
- effect of promoting decomposition of desmoglein (desmoglein): stronger effect of promoting decomposition of desmoglein than does glycolic acid

Compound: CC(N)(CO)CO [2-amino-2-methyl-1,3-propanediol]
- water content of the keratinous layer (keratinous layer [1]): more strongly than does glycolic acid
- elasticity of the skin (skin): more strongly than does glycolic acid
- mitigation of decrease in turnover rate of the keratinous layer induced by aging (keratinous layer [2]): more strongly than does glycolic acid
- effect of promoting decomposition of desmoglein (desmoglein): stronger effect of promoting decomposition of desmoglein than does glycolic acid
